Series [1] in a line: Plasma analysis and pharmacokinetics after intravaginal administration. On the procedure:
The low dose of 1 mg represents the largest potential human dose on an mg/kg basis. The high dose of 20 mg represents the largest potential total human dose unadjusted for body weight.
Pharmacokinetic parameters were determined by non-compartmental methods using Phoenix™ WinNonlin® (Version 6.3.0) Model: Plasma Data, Extravascular Administration for individual serial sample collection data (Pharsight Corporation). Area under the curve values were calculated using the linear trapezoidal rule with linear interpolation. […] Nominal sample collection time was used for the analysis unless the actual sample collection time exceeded the allowable collection window for the respective time; in which case, the actual sample collection time was used. Pharmacokinetic parameter data manipulation was performed using Excel 2010 (Microsoft Corporation).
Pharmacokinetic parameters determined were defined as follows: • Cmax: Maximum observed concentration occurring at Tmax. Tmax: Time of maximum observed concentration. • AUC0-t: Area under the curve from the time of dosing to the time of the last observation.

The conditions of series [2]: oral, cited from earlier work.
In series [3] the test system is postmenopausal hysterectomized patients with atrophic vaginitis. Kind of series: Pilot study of tamoxifen citrate vaginal suppository: self-assessment of vaginal dryness (VAS). The series is classed as in vivo, human. On the procedure: (§1) Methodology. Open-label prospective cohort study. Postmenopausal women with atrophic vaginitis were confirmed by vaginal pH. At baseline, vaginal pH and measure of their subjective vaginal dryness based on a VAS vaginal dryness. Four subjects were treated with vaginal suppositories of tamoxifen citrate for three months. After eight weeks of treatment, subjects had pharmacokinetic studies of the vaginal suppository.
(§2) Research Design. Healthy women with atrophic vaginitis were recruited to this study. To be eligible to enroll in the study, subjects underwent one screening visit. This visit was to determine the subject's vaginal pH and to measure of their subjective vaginal dryness based on a VAS. Once the subject met eligibility criteria, they received study medication.
(§3) Subjects received supplies of the study drug every six weeks.
(§4) Duration of Treatment. Participants were given the vaginal suppository every day for one week and then two times per week thereafter for 3 months. They were told how to insert the test drug (using the applicator, place the study drug deep into the vagina) and the dosing schedule.
(§5) Statistical Methods. The primary endpoints are changes in the self-assessment of vaginal dryness and vaginal pH defined as the difference between the baseline and the 3-month measurements. Descriptive statistics provided for the continuous study endpoints will include mean, median, standard deviation, and 95% confidence intervals. Descriptive statistics provided for categorical endpoints will include frequencies, percents, and 95% confidence intervals. Missing values of a variable will be imputed using the last observed value for the participant. Descriptive statistics will be provided with and without imputation of missing values.

For series [4] the test system is unchanged. Conditions: 3 months of vaginal suppository, 4 patients.
Method: The primary efficacy endpoints were normalization of vaginal pH and improvement in vaginal dryness symptom. Safety assessments consisted of monitoring and recording all adverse events and serious adverse events. […] The blood tests were measured after 5 hours after vaginal administration.
The test system is the same in series [5]. Kind of series: Pilot study of tamoxifen citrate vaginal suppository: vaginal pH. Type of series: in vivo, human. On the procedure:
as §1, §2, §3, §4, §5

The test system of the next series is female rabbits. Kind of series: 28-day intravaginal irritation study, modified Draize vaginal scoring. The series is classed as in vivo, New Zealand White rabbit. As to the method:
The testing was conducted following once daily intravaginal administration to female rabbits for 28 days to provide evaluation of the reversibility, progression, or delayed appearance of any observed changes following a 14-day postdose observation period. The animal model most commonly used to evaluate safety of vaginally administered products is the rabbit and the ovariectomized rat. However, the rabbit is considered the more sensitive model, and thus, was selected for this study.
Assessment of toxicity and/or irritation was based on mortality, clinical observations, vaginal irritation scores, body weight, physical examinations; clinical pathology, anatomic pathology, and histopathological grading of vaginal tissues. Treatment-related microscopic findings occurred in the proximal, mid, and distal vagina.
A total of 26 female experimentally naïve New Zealand White Hra:(NZW)SPF albino rabbits (approximately 7.5 months of age at receipt) were received from Covance Research Products, Greenfield, Ind. During the 9-day acclimation period, the animals were observed daily with respect to general health and any signs of disease.
The vaginal region of the animals was evaluated for signs of irritation using a modified Draize scoring system as presented in the following table. Evaluations were conducted prior to each daily dose and daily during the recovery period. Any abnormalities observed during this examination were documented as a detailed clinical observation. A score of “1” or above was confirmed by a member of the veterinary staff.

Setting [6] is: Day 28, 1 and 20 mg/mL groups, female rabbits.
Where [7] appears, read: female, New Zealand White, rabbit, in vivo.
[8] abbreviates: 20 mg vaginal suppository daily for one week then twice per week, month 3, 4 subjects.
[9] abbreviates: 20 mg vaginal suppository, month 3 versus enrollment, negative = decrease.
The mark [10] stands for this setting: baseline before treatment, 4 subjects.

By Tmax is commonly meant the time from dosing to the highest level.

In the case of `CCC(=C(c1ccc(O)cc1)c1ccc(OCCN(C)C)cc1)c1ccccc1` [4-Hydroxytamoxifen], in series [1] (setting [6]), the “Ratio of high to low mean values, AUC0-t/Dose” value is recorded as 3.16 and the “Ratio of high to low mean values, Cmax/Dose” value came to 4.24. For the same compound, in series [1] (Day 28, High Dose 20 mg/mL, female rabbits), the “Ratio of mean metabolite to Tamoxifen AUC0-t values” was 0.148. In addition, the “Ratio of mean metabolite to Tamoxifen AUC0-t values” in series [1] (Day 28, Low Dose 1 mg/mL, female rabbits) was found to be 0.0702. Besides, the “Median Tmax, range over dose groups” value in series [1] (rabbit, in vivo) fell in the range of 1 to 8 h.
Regarding `CC/C(=C(\c1ccccc1)c1ccc(OCCNC)cc1)c1ccccc1` [N-Desmethyltamoxifen], the “Tmax (median)” value in series [1] (rabbit, in vivo) is 1 h.
As for `CC/C(=C(\c1ccccc1)c1ccc(OCCN(C)C)cc1)c1ccccc1` [Tamoxifen, 1-(p-dimethylamino-ethoxphenyl)-2-ethyl-1,2-diphenylethylene, reference compound], in series [1] (setting [7]), the “Mean AUC0-t, range over dose groups” value lay in the range of 8.85 to 26.5 ng·h/mL and the “Mean Cmax, range over dose groups” value was in the range of 0.824 to 2.33 ng/mL. Moreover, in series [1] (female, New Zealand White, rabbit, in vivo, Median Tmax, range over dose groups), the Tmax was in the range of 0.5 to 1 h. The Tmax in series [1] (female, New Zealand White, rabbit, in vivo, Tmax (median)) came out at 1 h. In addition, the “time to steady state concentrations” value in series [2] (after initiation of therapy) is “about 4 weeks”. In addition, the “average steady state plasma concentration” value in series [2] (once daily for 3 months) was 122 ng/mL.
For the compound `CC/C(=C(\c1ccccc1)c1ccc(OCCN(C)C)cc1)c1ccccc1.O=C(O)CC(O)(CC(=O)O)C(=O)O` [tamoxifen citrate, (Z) 2-[4-(1,2-diphenyl-1-butenyl)phenoxy]-N, N-dimethylethanamine 2-hydroxy-1,2,3-propanetricarboxylate], the “Vaginal Dryness Month 3, median (VAS)” value in series [3] (setting [8]) is 3.0. In addition, the “Vaginal Dryness, Paired Difference enrollment to month 3, median” value in series [3] (setting [9]) was −5.5. Moreover, the “Vaginal Dryness Enrollment, median (VAS)” value in series [3] (setting [10]) is listed as 8.0. Also, the “drop-outs, serious adverse events, deaths” value in series [4] is “no patient drop-outs, serious adverse events, or deaths”. Besides, in series [5] (setting [8]), the “pH Month 3, median” value is reported as 5.0. In series [5] (setting [9]), the “vaginal pH, Paired Difference enrollment to month 3, median” value is −2.0. In addition, in series [5] (after 3 months, twice per week regimen), the “lowering of vaginal pH compared with conjugated estrogens” value is “as effective as conjugated estrogens”. The “pH Enrollment, median” value in series [5] (setting [10]) is given as 7.1. Moreover, in the series on female rabbits (1 and 20 mg/mL intravaginal once daily, 28 days), the “vaginal irritation (erythema, edema scores)” value is recorded as “no test article-related vaginal irritation”. Besides, the “vaginal irritation during recovery period” value with female rabbits (14-day recovery period) is “no signs of vaginal irritation”. Also, in the series on female rabbits (low and high doses (1 and 20 mg/mL), 28 days), the “vaginal irritation compared with vehicle control” value is recorded as “did not appear to be any more irritating than the vehicle control”.
